Experimental data taken from patent publication US11767303B2, “Compounds and methods for inhibiting viral replication and methods of treating and preventing flaviviral infections” (priority 2020, dated 2023).
Like-named read-outs stand apart in the source and are kept apart here.

How the values were obtained:
ZIKV [1] = assay: ZIKV inhibition in human neural progenitor cells (IFA, qRT-PCR); type: cell-based, Zika virus; conditions: HNPC
Text: Viral Titer Reduction Assay. A viral titer reduction assay was used to determine the compounds' effect on DENV2 and ZIKV strains, as described previously. Li et al., “Existing Drugs as Broad-Spectrum and Potent Inhibitors for Zika Virus by Targeting NS2B-NS3 Interaction,” Cell Res. 27:1046-1064 (2017) and Li et al., “Erythrosin B is a Potent and Broad-Spectrum Orthosteric Inhibitor of the Flavivirus NS2B-NS3 Protease,” Antiviral Res. 150:217-225 (2018), which are hereby incorporated by reference in their entirety. Human A549 lung carcinoma cells and human primary neural progenitor cells were used, as described previously. Li et al., “Erythrosin B is a Potent and Broad-Spectrum Orthosteric Inhibitor of the Flavivirus NS2B-NS3 Protease,” Antiviral Res. 150:217-225 (2018); Brecher et al., “A Conformational Switch High-Throughput Screening Assay and Allosteric Inhibition of the Flavivirus NS2B-NS3 Protease,” PLoS Pathog. 13:e1006411 (2017), which are hereby incorporated by reference in their entirety. All experiments were performed in triplicates.
Immunofluorescence Assay. The immunofluorescence assay was performed using ZIKV-infected cells treated with DMSO or JMX0207, as described previously. […]
Quantitative qRT-PCR. Quantitative qRT-PCR was performed as described previously. […] The 2-ΔΔCT (“delta-delta Ct”) method was used to quantify samples. […]

ZIKV [2] = assay: qRT-PCR of viral RNA from ZIKV-infected A549 cells; type: cell-based, Zika virus
Protocol: Quantitative qRT-PCR. Quantitative qRT-PCR was performed as described previously. Li et al., “Existing Drugs as Broad-Spectrum and Potent Inhibitors for Zika Virus by Targeting NS2B-NS3 Interaction,” Cell Res. 27:1046-1064 (2017); Li et al., “Erythrosin B is a Potent and Broad-Spectrum Orthosteric Inhibitor of the Flavivirus NS2B-NS3 Protease,” Antiviral Res. 150:217-225 (2018), which are hereby incorporated in their entirety. ZIKV primers […] (SEQ ID NO: 12) and […] (SEQ ID NO: 13) with ZIKV probe Cy5-[…]/TAO/[…]-IAbRQSp (SEQ ID NO: 14) were used. The 2-ΔΔCT (“delta-delta Ct”) method was used to quantify samples. All experiments were performed in triplicates.

[3] = not told
ZIKV [4] = assay: Viral titer reduction assay, ZIKV in A549 cells; type: cell-based, Zika virus; conditions: Zika virus
Protocol: Viral Titer Reduction Assay. A viral titer reduction assay was used to determine the compounds' effect on DENV2 and ZIKV strains, as described previously. […] Human A549 lung carcinoma cells and human primary neural progenitor cells were used, as described previously. […] All experiments were performed in triplicates.

[5] = Repeated oral dosing toxicity in mice; type: in vivo, mouse; conditions: repeated oral dosing 40 mg/kg/day for 7 days

Structure (SMILES): O=C(Nc1ccc([N+](=O)[O-])cc1Cl)c1cccc([N+](=O)[O-])c1O [JMX0207, N-(2-Chloro-4-nitrophenyl)-2-hydroxy-3-nitrobenzamide]
- ZIKV protein expression and RNA synthesis (ZIKV [1]): effectively inhibited ZIKV protein expression and RNA synthesis in HNPC in dose-dependent manner
- ZIKV RNA copy number (ZIKV [2]): significantly reduced the ZIKV RNA copy number in a dose-dependent manner
- Perme. (cell permeability) [3]: 1.3 ×10⁻⁶ cm/s
- EC50 (ZIKV [4]; A549, read-out: EC50-ZK): 300 nM
- EC50 (ZIKV [4]; A549, read-out: EC50-ZK (A549)): 300 nM
- sign of toxicity [5]: did not display any sign of toxicity
